Values joined by “and” are separate entries in the source; they are usually repeats but may differ in a detail not shown here. Equal values may be shown once.
Experiments:
[1] = test system: MatTek human PSE culture system (SOR-300-FT); experiment: MatTek human PSE culture system, tissue layer thickness and histology
Excerpt: The thickness of each of the three tissue layers of skin was monitored and measured after two days and after six days of exposure to the treatment medium in a blinded fashion by a board-certified and nationally respected pathologist.

[2] = test system: TGF-β; experiment: MatTek PSE culture system, TGF-β mRNA by qPCR; format: cell-based, human; details: after two days of treatment
Method: (§1) Other markers of cell proliferation were also measured, namely (protein p21), and four markers of inflammatory signaling (IL17A, IL23A, TNF-α, and transforming growth factor beta (TGF-β)) in the MatTek PSE culture system after two days of treatment were also determined. Ki67 is a nuclear protein and a replication marker. The marker levels were determined by isolating total RNA by a Promega SV96 Total RNA Isolation Vacuum System (Promega, Madison, WI) according to the manufacturer's instructions. The total RNA was reverse transcribed using an ABI High Capacity cDNA reverse transcription kit (Applied Biosystems, Foster City, CA). Quantitative real-time polymerase chain reaction (qPCR) was performed with the use of a SYBR Green PCR Master Mix (Applied Biosystems) according to the manufacturer's protocol and amplified on a StepOnePlus Real-Time PCR System.

[3] = test system: TNF-α; experiment: MatTek PSE culture system, TNF-α mRNA by qPCR; format: cell-based, human; details: after two days of treatment
Method: as §1

[4] = test system: Ki67; experiment: MatTek PSE culture system, Ki67 level by PCR; format: cell-based, human; details: for Relative Expression Levels, Ki67: after two days of treatment
Method: The level of Ki67 in the MatTek tissue culture system was also determined. Ki67 is a nuclear protein and a replication marker. The level of Ki67 was determined by polymerase chain reaction (PCR) analysis with standard protocols. The relative levels are normalized with respect to the measured Ki67 level of the control at Day 0, which is adjusted to 1.0.
as §1

[5] = test system: p21/Ki67; experiment: MatTek PSE culture system, ratio of p21 to Ki67 mRNA levels; format: cell-based, human; details: after two days of treatment; treatment compositions of Table 5
Method: Ki67 is a replication marker for cells and the lower the value, the lower the replication rate. P21 is a protein which is a marker for the inhibition of cell proliferation. Thus, an increased ratio of P21/Ki67 indicates decreased cell replication. FIG. 9 illustrates this ratio under several conditions as described in Example 2.
as §1
To highlight effects on cell proliferation, the ratio of p21 to Ki67 mRNA levels were calculated, with the results being shown in FIG. 9.

[6] = test system: p21; experiment: MatTek PSE culture system, p21 mRNA by qPCR; format: cell-based, human; details: after two days of treatment
Method: as §1

[7] = test system: IL17A; experiment: MatTek PSE culture system, IL17A mRNA by qPCR; format: cell-based, human; details: after two days of treatment
Method: as §1

[8] = test system: IL23A; experiment: MatTek PSE culture system, IL23A mRNA by qPCR; format: cell-based, human; details: after two days of treatment
Method: as §1

[9] = test system: HaCaT cells; experiment: M5 cocktail psoriasis-like HaCaT keratinocyte model, live and dead cell numbers by MultiTox-Glo Multiplex Cytotoxicity Assay
Method: Immortalized human keratinocytes (HaCaT cells) purchased from AddexBio (San Diego, CA) were maintained in vitro in Dulbecco's modified Eagle's medium (DMEM) supplemented with 10% Fetal Bovine Serum (FBS) and antibiotics (100 U/mL penicillin and […] streptomycin) and cultured in an incubator with 5% CO2 at 37° C.
HaCaT cells were seeded at approximately 50% density (1×10^4 cells/well) and after 16 h the medium was replaced with 50 μL of pre-treatment medium containing different concentrations of allopurinol (0, 0.5, or 3 mM) or methotrexate (1 μM) and placed back into the incubator. Treatment media was prepared using standard media containing vehicle control (PBS) or M5 cocktail.
Other HaCaT cells were incubated in vitro for 72 hours in the presence of a M5 composition that also included 1.0 μM methotrexate, 0.5 mM allopurinol, 3.0 mM allopurinol, 0.5 mM oxypurinol, or 3.0 mM oxypurinol.
The number of live and dead cells were determined by the MultiTox-Glo Multiplex Cytotoxicity Assay (Promega, Madison WI) according to the manufacturer's protocol. A dilution series of cells was used to generate a standard curve for calculation of cell number in each well. The total number of cells was the sum of the live and dead cells.

[10] = 1.0 μM, 0 hours (baseline), M5 cocktail, ± standard deviation
[11] = 1.0 μM, 0 hours (baseline), relative to 9177 live cells at zero hours
[12] = 1.0 μM, 48 hours, M5 cocktail, ± standard deviation
[13] = 1.0 μM, 48 hours, relative to 9177 live cells at zero hours
[14] = 1.0 μM, 72 hours, M5 cocktail, ± standard deviation
[15] = 1.0 μM, 72 hours, relative to 9177 live cells at zero hours

N[C@@H](CCC(=O)N[C@@H](CS)C(=O)NCC(=O)O)C(=O)O [glutathione]
Layer Thickness, Dermis ([1]; 3 mM, 2 days): 0.3 mm
Layer Thickness, Epidermis ([1]; 3 mM, 2 days): 0.2 mm
Layer Thickness, Stratum Corneum ([1]; 3 mM, 2 days): 0.15 mm
Relative Expression Levels, TGF-β ([2]; 3 mM): 0.77 ± 0.10
Relative Expression Levels, TNF-α ([3]; 3 mM): 0.29 ± 0.07
Relative Expression Levels, Ki67 ([4]; 3 mM): 0.27 ± 0.01
p21/Ki67 ratio (mRNA levels) [5]: markedly increased
Relative Expression Levels, p21 ([6]; 3 mM): 1.35 ± 0.06
Relative Expression Levels, IL17A ([7]; 3 mM): 0.04 ± 0.02
Relative Expression Levels, IL23A ([8]; 3 mM): 0.79 ± 0.14

CN(Cc1cnc2nc(N)nc(N)c2n1)c1ccc(C(=O)N[C@@H](CCC(=O)O)C(=O)O)cc1 [methotrexate]
Cell Counts, 0 hours, Dead [9, 10]: 801 ± 19
Cell Counts, 0 hours, Live [9, 10]: 9177 ± 90
Cell Ratios, 0 hours, Dead [9, 11]: 0.087
Cell Ratios, 0 hours, Total [9, 11]: 1.087
Cell Counts, 48 hours, Dead [9, 12]: 4826 ± 464
Cell Counts, 48 hours, Total [9, 12]: 11194 ± 545
Cell Ratios, 48 hours, Dead [9, 13]: 0.526
Cell Ratios, 48 hours, Total [9, 13]: 1.220
Cell Counts, 72 hours, Dead [9, 14]: 6300 ± 289
Cell Counts, 72 hours, Total [9, 14]: 11587 ± 593
Cell Ratios, 72 hours, Dead [9, 15]: 0.69 and 0.686
Cell Ratios, 72 hours, Total [9, 15]: 1.26 and 1.263

O=c1[nH]c(=O)c2c[nH]nc2[nH]1 [oxypurinol]
Cell Counts, 0 hours, Live ([9]; 0.5 mM, 0 hours (baseline), M5 cocktail, ± standard deviation): 9177 ± 90
Cell Ratios, 0 hours, Total ([9]; 0.5 mM, 0 hours (baseline), relative to 9177 live cells at zero hours): 1.087
Cell Counts, 48 hours, Total ([9]; 0.5 mM, 48 hours, M5 cocktail, ± standard deviation): 14960 ± 100
Cell Ratios, 48 hours, Total ([9]; 0.5 mM, 48 hours, relative to 9177 live cells at zero hours): 1.630
Cell Counts, 72 hours, Total ([9]; 0.5 mM, 72 hours, M5 cocktail, ± standard deviation): 17036 ± 222
Cell Ratios, 72 hours, Total ([9]; 0.5 mM, 72 hours, relative to 9177 live cells at zero hours): 1.86 and 1.856
Cell Counts, 0 hours, Live ([9]; 3.0 mM, 0 hours (baseline), M5 cocktail, ± standard deviation): 9177 ± 90
Cell Ratios, 0 hours, Total ([9]; 3.0 mM, 0 hours (baseline), relative to 9177 live cells at zero hours): 1.087
Cell Counts, 48 hours, Total ([9]; 3.0 mM, 48 hours, M5 cocktail, ± standard deviation): 13069 ± 142
Cell Ratios, 48 hours, Total ([9]; 3.0 mM, 48 hours, relative to 9177 live cells at zero hours): 1.424
Cell Counts, 72 hours, Total ([9]; 3.0 mM, 72 hours, M5 cocktail, ± standard deviation): 14228 ± 282
Cell Ratios, 72 hours, Total ([9]; 3.0 mM, 72 hours, relative to 9177 live cells at zero hours): 1.55
Cell Counts, 0 hours, Dead ([9]; human, 0 h, 0.5 mM): 801 ± 19
Cell Ratios, 0 hours, Dead ([9]; human, 0 h, 0.5 mM): 0.087
Cell Counts, 0 hours, Dead ([9]; human, 0 h, 3 mM): 801 ± 19
Cell Ratios, 0 hours, Dead ([9]; human, 0 h, 3 mM): 0.087
Cell Counts, 48 hours, Dead ([9]; human, 48 h, 0.5 mM): 2937 ± 65
Cell Ratios, 48 hours, Dead ([9]; human, 48 h, 0.5 mM): 0.320
Cell Counts, 48 hours, Dead ([9]; human, 48 h, 3 mM): 2508 ± 124
Cell Ratios, 48 hours, Dead ([9]; human, 48 h, 3 mM): 0.273
Cell Counts, 72 hours, Dead ([9]; human, 72 h, 0.5 mM): 4761 ± 200
Cell Counts, 72 hours, Dead ([9]; human, 72 h, 3 mM): 3691 ± 244

Vitamin D
Layer Thickness, Dermis ([1]; 100 nM, 2 days): 0.25 mm
Layer Thickness, Epidermis ([1]; 100 nM, 2 days): 0.15 mm
Layer Thickness, Stratum Corneum ([1]; 100 nM, 2 days): 0.05 mm
Layer Thickness, Dermis ([1]; 100 nM, 6 days): 0.2 mm
Layer Thickness, Epidermis ([1]; 100 nM, 6 days): 0.2 mm
Layer Thickness, Stratum Corneum ([1]; 100 nM, 6 days): 0.2 mm
Relative Expression Levels, TGF-β ([2]; 100 nM): 0.35 ± 0.09
Relative Expression Levels, TNF-α ([3]; 100 nM): 0.48 ± 0.17
Relative Ki67 Level ([4]; 100 nM, Day 6, normalized to control at Day 0 = 1.0): 1.99
Relative Expression Levels, Ki67 ([4]; 100 nM): 0.34 ± 0.01
p21/Ki67 ratio (mRNA levels) [5]: markedly increased
Relative Expression Levels, p21 ([6]; 100 nM): 5.10 ± 0.70
Relative Expression Levels, IL17A ([7]; 100 nM): 0.06 ± 0.03
Relative Expression Levels, IL23A ([8]; 100 nM): 0.45 ± 0.07

Reference: patent US20250114362A1, “METHODS AND COMPOSITIONS FOR TREATMENT OF CUTANEOUS PROLIFERATIVE DISORDERS AND OTHER SKIN CONDITIONS” (ASYMMETRIC THERAPEUTICS, LLC, priority 2022, published 2025)
